Assay results published in patent US10722518B2, “Oxazine derivative for use in the treatment or prevention of cerebral amyloid angiopathy” (Novartis AG, priority 2016, dated 2020).

Test system: amyloid-beta in CD31-positive vessels
Assay: Assessment of CAA in APP23 mice by CD31/NT12 double fluorescence immunohistochemistry and image analysis
Type: in vivo, mouse
Protocol: Amyloid plaques were stained using a rabbit anti-Aβ primary antibody (NT12) which recognizes the C-terminal part of the amyloid peptide (the antibody was raised as described in Schrader-Fischer G and Paganetti P A, 1996, and Schrader-Fischer G et al., 1997). The vascular endothelial cells were detected using a rat anti-CD31 antibody (reference DIA310) from Dianova GmbH (Hamburg, Germany). All stainings were performed using the fully automated instrument Ventana Discovery® Ultra (Roche Diagnostics Schweiz AG, Rotkreuz, Switzerland). All chemicals were provided by Roche Diagnostic.
All study animals were used and brain tissue sections of 3 micrometers were freshly cut and collected on SuperFrost+ slides. The tissues sections were de-paraffinized and rehydrated under solvent-free conditions (EZprep solution) followed by antigen retrieval (demasking) performed by heat retrieval cycles for 32 min in a EDTA based buffer (CC1 solution). Subsequently, slides were blocked for 4 min using the DISCOVERY Inhibitor (reference 07017944001 (Roche)). The primary antibody diluted at 1/10′000 in antibody diluent was manually added on tissue sections and incubated for 1 h at room temperature. A short post-fixation (glutaraldehyde at 0.05%) was performed before applying the multimer UltraMap-anti Rabbit HRP ready to use antibody (reference 05269717001) for 16 min.
Detection was performed using the DISCOVERY FITC® following the manufacturer's recommendations. Slides were then heat denaturated at 92° C. for 20 min before a manual application of the second primary antibody (rat anti-CD31 diluted at 1/1′000 in antibody diluent) and incubated for 1 h. Multimer UltraMap-anti-Rat HRP antibody (reference 05891884001) was used for 20 min to detect CD31 in combination with the DISCOVERY Rhodamine kit (reference 07259883001).
The slides were washed and mounted using Prolong® Gold antifade reagent (reference P36931, ThermoFisher, Switzerland) and further scanned with the Hamamatsu slide scanner instrument (NanoZoomer 2.0 HT, scanning software NDP-Scan Vers. 2.5, Hamamatsu Photonics France, Swiss Office, Solothurn, Switzerland) at the 40× objective. The scanning settings were as follows: the exposure time with the DAPI filter was set at 28.5 ms as well as for the FITC filter and TRITC filter (detection of Rhodamine).
For the quantitative plaque and vessel-associated amyloid-beta evaluation based on image analysis, a proprietary image analysis platform (ASTORIA, Automated Stored Image Analysis) was developed based on MS Visual Studio 2010 and many functions from Matrox MIL V9 libraries (Matrox Inc, Quebec, Canada).
For the beta-amyloid plaque and vessel analysis, the following sequence of steps was performed: • Slides were scanned with Hamamatsu Nanozoomer at 40× magnification. […]

[1] = 0.3 g/kg food, 6 months, all CD31+ vessels
[2] = 0.3 g/kg food, 6 months, large CD31-positive vessels
[3] = 0.3 g/kg vs vehicle, all CD31+ vessels
[4] = 0.3 g/kg vs vehicle, large vessels
[5] = 0.3 g/kg vs vehicle, small + medium vessels

C[C@@]1(c2nc(NC(=O)c3ncc(C(F)(F)F)cc3Cl)ccc2F)CO[C@@](C)(C(F)(F)F)C(N)=N1 [Compound 1, N-(6-((3R,6R)-5-amino-3,6-dimethyl-6-(trifluoromethyl)-3,6-dihydro-2H-1,4-oxazin-3-yl)-5-fluoropyridin-2-yl)-3-chloro-5-(trifluoromethyl)picolinamide]
% of large vessels with 0% Aβ (0.3 g/kg food, 6 months): 10.3 ± 1.56% | % of large vessels with 1-10% Aβ (0.3 g/kg food, 6 months): 21.6 ± 2.31% | % of large vessels with 10-25% Aβ (0.3 g/kg food, 6 months): 9.48 ± 1.85% | % of large vessels with 25-50% Aβ (0.3 g/kg food, 6 months): 20.6 ± 3.66% | % of large vessels with 50-75% Aβ (0.3 g/kg food, 6 months): 28.8 ± 3.3% | % of large vessels with >10% Aβ (0.3 g/kg food, 6 months): 68.1 ± 3.03% | % of large vessels with >75% Aβ (0.3 g/kg food, 6 months): 9.27 ± 2.77% | % of small + medium vessels with 0% Aβ (0.3 g/kg food, 6 months): 80.2 ± 1.61% | % of small + medium vessels with 1-10% Aβ (0.3 g/kg food, 6 months): 10.8 ± 1.12% | % of small + medium vessels with 10-25% Aβ (0.3 g/kg food, 6 months): 2.75 ± 0.20% | % of small + medium vessels with 25-50% Aβ (0.3 g/kg food, 6 months): 2.38 ± 0.25% | % of small + medium vessels with 50-75% Aβ (0.3 g/kg food, 6 months): 1.73 ± 0.21% | % of small + medium vessels with >10% Aβ (0.3 g/kg food, 6 months): 8.95 ± 0.8% | % of small + medium vessels with >75% Aβ (0.3 g/kg food, 6 months): 2.07 ± 0.33% | CAA Frequency (number small + medium vessels with >10% Aβ normalized to sample area, *10^7) (0.3 g/kg food, 6 months): 56 ± 6.1 | Number of large CD31+ vessels (normalized to total CD31 positive vessel numbers in %) (0.3 g/kg food, 6 months): 1.49 ± 0.12% | Number of small + medium CD31+ vessels (normalized to total CD31 positive small + medium vessel numbers in %) (0.3 g/kg food, 6 months): 98.5 ± 0.12% | Number small + medium vessels with >10% Aβ, mean ± SEM (0.3 g/kg food, 6 months): 195 ± 21.9 | Total number CD31+ vessels (normalized to total sample area, *10^5), mean ± SEM (0.3 g/kg food, 6 months): 6.46 ± 0.37 | Total vessel-associated NT12 area (normalized to total small + medium CD31+ vessel area) (0.3 g/kg food, 6 months): 0.194 ± 0.0201 | % of vessels with 0% Aβ [1]: 79.2 ± 1.63% | % of vessels with 1-10% Aβ [1]: 11 ± 1.1% | % of vessels with 10-25% Aβ [1]: 2.87 ± 0.21% | % of vessels with 25-50% Aβ [1]: 2.65 ± 0.25% | % of vessels with 50-75% Aβ [1]: 2.12 ± 0.24% | % of vessels with >10% Aβ [1]: 9.82 ± 0.85% | % of vessels with >75% Aβ [1]: 2.19 ± 0.36% | CAA Frequency (number vessels with >10% Aβ normalized to sample area, *10^7) [1]: 70 ± 7.6 | Number vessels with >10% Aβ, mean ± SEM [1]: 217 ± 23.6 | Total vessel-associated NT12 area (normalized to total CD31+ area) [1]: 0.47 ± 0.04 | CAA Frequency (number vessels with >10% Aβ normalized to sample area, *10^7) [2]: 6.5 ± 0.6 | Number vessels with >10% Aβ, mean ± SEM [2]: 22 ± 2.2 | Total vessel-associated NT12 area (normalized to total CD31+ area) [2]: 0.77 ± 0.04 | % of large vessels with 0% Aβ, treatment effect vs vehicle (0.3 g/kg vs vehicle): −8% | % of large vessels with 1-10% Aβ, treatment effect vs vehicle (0.3 g/kg vs vehicle): +48% | % of large vessels with 10-25% Aβ, treatment effect vs vehicle (0.3 g/kg vs vehicle): +35% | % of large vessels with 25-50% Aβ, treatment effect vs vehicle (0.3 g/kg vs vehicle): +7% | % of large vessels with 50-75% Aβ, treatment effect vs vehicle (0.3 g/kg vs vehicle): −12% | % of large vessels with >10% Aβ, treatment effect vs vehicle (0.3 g/kg vs vehicle): −8% | % of large vessels with >75% Aβ, treatment effect vs vehicle (0.3 g/kg vs vehicle): −36% | % of small + medium vessels with 0% Aβ, treatment effect vs vehicle (0.3 g/kg vs vehicle): +9% | % of small + medium vessels with 1-10% Aβ, treatment effect vs vehicle (0.3 g/kg vs vehicle): −15% | % of small + medium vessels with 10-25% Aβ, treatment effect vs vehicle (0.3 g/kg vs vehicle): −35% | % of small + medium vessels with 25-50% Aβ, treatment effect vs vehicle (0.3 g/kg vs vehicle): −39% | % of small + medium vessels with 50-75% Aβ, treatment effect vs vehicle (0.3 g/kg vs vehicle): −35% | % of small + medium vessels with >10% Aβ, treatment effect vs vehicle (0.3 g/kg vs vehicle): −36% | % of small + medium vessels with >75% Aβ, treatment effect vs vehicle (0.3 g/kg vs vehicle): −34% | Total small + medium vessel-associated NT12 area (normalized to total CD31+ small + medium vessel area), treatment effect vs vehicle (0.3 g/kg vs vehicle): −28% p < 0.05 | % of vessels with 0% Aβ, treatment effect vs vehicle [3]: +9% | % of vessels with 1-10% Aβ, treatment effect vs vehicle [3]: −13% | % of vessels with 10-25% Aβ, treatment effect vs vehicle [3]: −32% | % of vessels with 25-50% Aβ, treatment effect vs vehicle [3]: 36% | % of vessels with 50-75% Aβ, treatment effect vs vehicle [3]: −33% | % of vessels with >10% Aβ, treatment effect vs vehicle [3]: −34% | % of vessels with >75% Aβ, treatment effect vs vehicle [3]: −34% | CAA Frequency, treatment effect vs vehicle [3]: −29% p < 0.05 | Number vessels with >10% Aβ, treatment effect vs vehicle [3]: −39% p < 0.001 | Total vessel-associated NT12 area (normalized to total CD31+ area), treatment effect vs vehicle [3]: −19% n.s. | CAA Frequency, treatment effect vs vehicle [4]: −17% n.s. | Number vessels with >10% Aβ, treatment effect vs vehicle [4]: −21% n.s. | Total vessel-associated NT12 area (normalized to total CD31+ area), treatment effect vs vehicle [4]: −4% n.s. | CAA Frequency, treatment effect vs vehicle [5]: −37% p < 0.005 | Number vessels with >10% Aβ, treatment effect vs vehicle [5]: −40% p < 0.001
